Results reported in patent publication US20220133702A1, “CYSTIC FIBROSIS TRANSMEMBRANE CONDUCTANCE REGULATOR MODULATORS FOR TREATING AUTOSOMAL DOMINANT POLYCYSTIC KIDNEY DISEASE” (The Johns Hopkins University, priority 2020, published 2022).

Assays:
[1] = system: Pkd1^fl/fl; Pax8^rtTA; TetO-cre mice; assay: Cyst growth and renal function in doxycycline-induced Pkd1 knockout mice; type: in vivo, mouse
Experimental: (FIG. 1A) Representative images of postnatal day (PND) 21 kidney sections from DMSO- and VX-809-treated mice. Significant reductions occurred in (FIG. 1B) cyst index, (FIG. 1C) kidney weight, and (FIG. 1D) kidney-to-body weight ratio. […] Methods: The total kidney area and total cystic area were measured with ImageJ (provided by NIH). Cystic index=100 X (total cystic area/total kidney area) and is expressed as a percentage. Columns represent means±standard error (SEM) for DMSO (vehicle)-treated (n=4-5) and VX-809 mice. *P<0.05; **P<0.01 (for all graphs). Statistical analysis was performed using an unpaired two-tailed Student's t-test;
When treated with doxycycline, these mice express Cre, causing knockout of PC1. […] Kidney weight (FIG. 1C) and kidney-to-body weight ratios (FIG. 1D) were also lower than those of the control mice. There was no difference in overall body weight (FIG. 1E) between the treated and untreated groups. […] The dosage of VX-809 injected was lower than the human pediatric dose, which is 500 mg of Lumacaftor per day; the adult dose is 800 mg/day.
Mouse strain and treatment. Pkd1^fl/fl; Pax8^rtTA; TetO-cre mice on a C57BL/6 background (61) were provided by the Baltimore PKD Center. Mice of both sexes were used in this study. Mice were injected IP with doxycycline (Sigma, #D9891) (4 μg of doxycycline/g body weight) on postnatal day 11 (PND11), PND12, and PND13 to produce very rapid and aggressive cyst growth. On PND21, the mice were euthanized.
(§1) To determine the location of PC2 in the cilia, confocal microscopy experiments using the Pkd1^fl/fl; Pax8^rtTA TetO-cre mouse model were conducted. These mice, when injected intraperitoneally (IP) with doxycycline on postnatal days (PND) 11, 12, and 13, developed multiple large cysts and large polycystic kidneys at approximately 3 weeks of age.

[2] = system: PC2 in the primary cilium; assay: Confocal microscopy of PC2 in cilia of kidney sections; type: in vivo, mouse; details: doxycycline plus VX-809 vs doxycycline plus DMSO
Experimental: as §1
Mice were treated without doxycycline (NoDoxy), with doxycycline plus DMSO (Doxy), or with doxycycline plus VX809 (Doxy VX809), as indicated. PC2 staining is shown in red, acetylated (ac) αtubulin is shown in green, regions of colocalization of PC2 and ac-atubulin are shown in yellow. Scale bar is 10 μm. All pictures were taken with a 63× objective.
FIG. 21 is a graph of the percentage of cells with ciliary staining. Mice were treated without doxycycline (NoDoxy), with doxycycline plus DMSO (Doxy), or with doxycycline plus VX809 (Doxy VX809), as indicated, and kidney cells were analyzed. Pearson's coefficient was measured using at least 10 cells per image. Three animals were analyzed for each maneuver.
In normal mice PC2 is located in the primary cilium.

[3] = system: NHE3 in PN cells; assay: NHE3 expression; type: cell-based, mouse; details: treated PN cells vs PN cells
Experimental: FIG. 14A and FIG. 14B show NHE3 expression in PN cells treated with VX-809.
The expression and activity of […] were evaluated. Specifically, NHE3 expression was evaluated in PN cells that were treated with VX-809. […] was also studied in PN, PH, and PN cells treated with VX-809. […] Next, NHE3 activity was evaluated in PN/PH cells or PN cells treated with VX-809. NHE3 activity was increased in PN cells treated with VX-809, as compared to PN cells (FIG. 16A). NHE3 activity was higher in control PH cells than in PN cells (FIG. 16B). […] NHE3 activity was increased in both VX-809 treated PN cells and control PH cells, as compared to control PN cells (FIG. 16C).

[4] = 30 mg/kg IP daily PND10 to PND20, vs DMSO-treated mice
[5] = 30 mg/kg IP daily PND10 to PND20, vs control mice
[6] = injected daily PND10 to PND20, vs DMSO-treated mice

In the case of `Cc1ccc(NC(=O)C2(c3ccc4c(c3)OC(F)(F)O4)CC2)nc1-c1cccc(C(=O)O)c1` [VX-809, lumacaftor], the overall body weight ([1]; 30 mg/kg IP daily PND10 to PND20, treated vs untreated) was “no difference”, the “blood urea nitrogen (BUN)” value [1, 4] was “lowered” and the creatinine [1, 4] was “lowered”. The “cyst growth (cyst index)” value [1, 4] was −60.4%, the Kidney weight [1, 5] was “lower” and the kidney-to-body weight ratios [1, 5] was “lower”. For the same compound, the “cyst growth (in words)” value [1, 6] was “significantly less cyst growth”, the renal function [1, 6] was “improved renal function” and the “PC2 in the cilium” value [2] was “restores PC2 to the cilium”. For the same compound, the “colocalization of PC2 with the cilia marker ac-αtubulin” value [2] was “increases colocalization” and the NHE3 expression [3] was “significantly increased”.
